According to PMC2901826, “Intramolecular Modulation of Serine Protease Inhibitor Activity in a Marine Cyanobacterium with Antifeedant Properties” (Marine Drugs, 2010):

Experiments:
[1] = target: T1, α-chymotrypsin from bovine pancreas (Bos taurus, UniProt P00766); experiment: Chymotrypsin inhibition assay; format: biochemical; details: for IC50: α-chymotrypsin from bovine pancreas, substrate N-succinyl-Gly-Gly-Phe-p-nitroanilide, 30 min pre-incubation, triplicate, read-out: Serine protease inhibitory activity (IC50), Chymotrypsin
T1 construct: purchased Sigma C4129; host or cells: bovine pancreas
Procedure: (§1) Elastase assay was assessed using high-purity porcine pancreatic elastase (Elastin Products Company, EC134, 135 units/mg). The assay buffer used was 1M Tris-HCl (pH 8.0). Assay buffer (79 μL), elastase solution (75 μg/mL in assay buffer, 5 μL) and various concentrations of 1 and 2 (1 μL, dissolved in DMSO) were pre-incubated for 15 min at room temperature in a microtiter plate. After this time, 15 μL of substrate solution (2 mM N-succinyl-Ala-Ala-Ala-p-nitroanilide in assay buffer) was added to each well and the reaction was followed by measuring the absorbance at 405 nm every 30 s. Inhibition of chymotrypsin was determined using the α-chymotrypsin from bovine pancreas (Sigma, C4129, 55 units/mg). The assay buffer was 50 mM Tris-HCl, 100 mM NaCl and 1 mM CaCl2 (pH 7.8). Assay buffer (39 μL), enzyme solution (100 μg/mL in assay buffer, 10 μL), and various concentrations of 1 and 2 (1 μL, dissolved in DMSO) were pre incubated for 30 min at room temperature before substrate solution (1.5 mM N-succinyl-Gly-Gly-Phe-p-nitroanilide in assay buffer) was added. The reaction was followed by measuring the absorbance at 405 nm every 30 s for 30 min. For each assay, enzyme activity of each well was calculated using the initial slope of each progress curve, expressed as a percentage of the slope of uninhibited reaction. All assays were carried out in triplicate at ambient temperature (T = 29 °C). […] Dose–response curve fitting was done using Xlfit Excel, MathlQ Version 2.2.2 (IDBS Ltd.).

[2] = target: T2, porcine pancreatic elastase (Sus scrofa, UniProt P00772); experiment: Elastase inhibition assay; format: biochemical; details: for IC50: porcine pancreatic elastase, substrate N-succinyl-Ala-Ala-Ala-p-nitroanilide, 15 min pre-incubation, triplicate, read-out: Serine protease inhibitory activity (IC50), Elastase
T2 construct: purchased Elastin Products Company EC134; host or cells: porcine pancreas
T2 sequence (P00772 27-266): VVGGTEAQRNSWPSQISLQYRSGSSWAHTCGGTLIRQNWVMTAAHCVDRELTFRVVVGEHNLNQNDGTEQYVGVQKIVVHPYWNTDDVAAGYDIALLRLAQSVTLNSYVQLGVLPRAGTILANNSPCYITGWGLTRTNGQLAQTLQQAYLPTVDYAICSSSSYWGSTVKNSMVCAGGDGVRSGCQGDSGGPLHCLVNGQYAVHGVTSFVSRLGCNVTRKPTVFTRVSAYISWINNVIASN
Procedure: as §1

[3] = target: T1, α-chymotrypsin from bovine pancreas; details: cited from earlier work

Structure (SMILES) | fold reduced activity against chymotrypsin ([1]; relative to largamide D (2)) | IC50 [1] | IC50 [2] | fold reduced activity against elastase ([2]; relative to largamide D (2)) | chymotrypsin inhibition, previously reported [3]
CC(C)CC1NC(=O)C(NC(=O)C(NC(=O)C(C)NC(=O)C(CCCc2ccc(O)cc2)NC(=O)C(O)CO)C(C)C)C(C)OC(=O)C(C(C)C)NC(=O)C(Cc2ccc(O)c(Br)c2)N(C)C(=O)C2C(C)OC3CCC(NC1=O)C(=O)N32 (stereo not shown) [Largamide D oxazolidine (1), largamide D oxazolidine] | 11 fold | 928 ± 93 nM | 1520 ± 80 nM | 33 fold | –
CC(C)C[C@@H]1NC(=O)[C@@H](NC(=O)[C@@H](NC(=O)[C@H](C)NC(=O)[C@H](CCCc2ccc(O)cc2)NC(=O)[C@H](O)CO)C(C)C)[C@@H](C)OC(=O)[C@H](C(C)C)NC(=O)[C@H](Cc2ccc(O)c(Br)c2)N(C)C(=O)[C@H]([C@@H](C)O)N2C(=O)[C@H](CC[C@H]2O)NC1=O [Largamide D (2), largamide D] | – | 83 ± 8 nM | 45 ± 3 nM | – | moderate chymotrypsin inhibitor
